Measured values taken from paper PMC3171737 (Journal of medicinal chemistry, 2011).
Where two headings read alike, the source gives them in different places.

How the values were obtained:
[1] = test system: H3K9me2 levels in MDA-MB-231 cells; assay: H3K9me2 In-Cell Western; assay type: cell-based
[2] = test system: H3K9me2 levels in MCF7 cells; assay: H3K9me2 ICW assay, MCF7; assay type: cell-based; settings: Homo sapiens, MCF7, 48 h, read-out: ICW IC50
[3] = test system: MDA-MB-231 cells; assay: MTT cell toxicity assay, MDA-MB-231; assay type: cell-based; settings: Homo sapiens, MDA-MB-231, 48 h, read-out: MTT EC50
[4] = test system: H3K9me2 levels in PC3 cells; assay: H3K9me2 ICW assay, PC3; assay type: cell-based; settings: Homo sapiens, PC-3, 48 h, read-out: ICW IC50
[5] = test system: HCT116 p53−/− cells; assay: MTT assay, HCT116 p53−/−; assay type: cell-based; settings: Homo sapiens, HCT-116, 48 h, read-out: MTT EC50
[6] = test system: H3K9me2 levels in 22RV1 cells; assay: H3K9me2 ICW assay, 22RV1; assay type: cell-based; settings: Homo sapiens, 22Rv1, 48 h, read-out: ICW IC50
[7] = test system: H3K9me2 levels in HCT116 wt cells; assay: H3K9me2 ICW assay, HCT116 wt; assay type: cell-based; settings: Homo sapiens, HCT-116, 48 h, read-out: ICW IC50
[8] = test system: HCT116 wt cells; assay: MTT assay, HCT116 wt; assay type: cell-based; settings: Homo sapiens, HCT-116, 48 h, read-out: MTT EC50
[9] = molecular target: T1, G9a (Homo sapiens, UniProt Q96KQ7); assay: G9a SAHH-coupled assay; assay type: biochemical; settings: versus compound 5
T1 sequence (Q96KQ7 1-1210): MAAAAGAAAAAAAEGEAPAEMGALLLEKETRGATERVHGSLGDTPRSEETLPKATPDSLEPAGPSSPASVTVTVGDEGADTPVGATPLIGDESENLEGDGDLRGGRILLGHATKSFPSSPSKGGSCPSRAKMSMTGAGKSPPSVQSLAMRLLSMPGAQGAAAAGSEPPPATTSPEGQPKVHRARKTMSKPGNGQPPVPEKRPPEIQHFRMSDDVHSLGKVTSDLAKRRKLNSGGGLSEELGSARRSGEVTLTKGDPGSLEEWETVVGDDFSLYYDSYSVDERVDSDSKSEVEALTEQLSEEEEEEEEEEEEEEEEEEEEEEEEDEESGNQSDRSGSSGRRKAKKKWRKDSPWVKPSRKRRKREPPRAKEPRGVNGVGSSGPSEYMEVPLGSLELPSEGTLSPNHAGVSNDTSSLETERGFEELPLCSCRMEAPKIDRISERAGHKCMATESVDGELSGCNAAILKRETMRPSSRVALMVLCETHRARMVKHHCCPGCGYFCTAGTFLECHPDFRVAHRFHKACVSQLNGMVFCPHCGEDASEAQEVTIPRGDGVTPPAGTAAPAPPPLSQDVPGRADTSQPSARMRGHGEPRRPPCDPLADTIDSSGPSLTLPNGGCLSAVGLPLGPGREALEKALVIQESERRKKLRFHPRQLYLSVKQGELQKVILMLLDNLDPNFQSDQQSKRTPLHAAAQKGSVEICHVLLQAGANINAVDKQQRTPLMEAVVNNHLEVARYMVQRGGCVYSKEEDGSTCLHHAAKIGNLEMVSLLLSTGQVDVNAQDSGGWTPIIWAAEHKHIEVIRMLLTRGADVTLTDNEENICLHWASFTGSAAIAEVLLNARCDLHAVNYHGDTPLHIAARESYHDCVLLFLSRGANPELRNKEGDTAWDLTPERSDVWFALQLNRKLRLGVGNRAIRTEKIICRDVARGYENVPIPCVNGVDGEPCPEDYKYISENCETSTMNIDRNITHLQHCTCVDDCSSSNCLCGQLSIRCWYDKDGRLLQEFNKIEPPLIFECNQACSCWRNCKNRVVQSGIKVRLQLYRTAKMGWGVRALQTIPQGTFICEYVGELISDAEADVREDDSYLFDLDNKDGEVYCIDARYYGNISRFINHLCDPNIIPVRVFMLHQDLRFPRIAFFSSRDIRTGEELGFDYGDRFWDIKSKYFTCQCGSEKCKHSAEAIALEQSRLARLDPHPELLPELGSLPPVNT

[10] = Homo sapiens, MDA-MB-231, 48 h, read-out: Cellular IC50 (Reduction of H3K9me2 (ICW)), Table 2, MDA-MB-231 cells, 48 h
[11] = Homo sapiens, MDA-MB-231, 48 h, read-out: Cellular IC50 (Reduction of H3K9me2 (ICW)), Table 4, MDA-MB-231 cells, 48 h
[12] = read-out: Cellular IC50 (Reduction of H3K9me2 (ICW)), Table 2, MDA-MB-231 cells, 48 h

`COc1cc2c(NC3CCN(C)CC3)nc(N3CCCN(C)CC3)nc2cc1OCCCN(C)C` [Compound 2] showed an IC50 ([1]; Homo sapiens, MDA-MB-231, 48 h, read-out: Cellular IC50 (Reduction of H3K9me2 (ICW)), Table 1, MDA-MB-231 cells, 48 h) greater than 5000 nM.
In the case of `COc1cc2c(NC3CCN(C(C)C)CC3)nc(C3CCCCC3)nc2cc1OCCCN1CCCC1` [Compound 5, 2-Cyclohexyl-N-(1-isopropylpiperidin-4-yl)-6-methoxy-7-(3-(pyrrolidin-1-yl)propoxy)quinazolin-4-amine], the IC50 [2] is reported as 70 nM, the EC50 [3] is reported as 11000 nM and the IC50 ([1]; Homo sapiens, MDA-MB-231, 48 h, read-out: Cellular IC50 (Reduction of H3K9me2 (ICW))) is reported as 81 nM. For the same molecule, the IC50 [1, 10] was no more than 100 nM, the IC50 ([1]; Homo sapiens, MDA-MB-231, 48 h, read-out: ICW IC50) was 81 nM and the IC50 [4] was 59 nM. For the same molecule, the EC50 [5] was 11000 nM, the IC50 [6] was 48 nM and the IC50 [7] was 210 nM. It also gave an EC50 [8] of 11000 nM.
With `COc1cc2c(NC3CCN(C4CCCCC4)CC3)nc(N3CCCN(C(C)C)CC3)nc2cc1OCCCN1CCCCC1` [Compound 6, N-(1-cyclohexylpiperidin-4-yl)-2-(4-isopropyl-1,4-diazepan-1-yl)-6-methoxy-7-(3-(piperidin-1-yl)propoxy)quinazolin-4-amine] the IC50 [1, 11] was less than 60 nM.
Work on `COc1cc2c(NC3CCN(CC4CCCCC4)CC3)nc(N3CCCN(C(C)C)CC3)nc2cc1OCCCN1CCCCC1` [Compound 7, N-(1-(cyclohexylmethyl)piperidin-4-yl)-2-(4-isopropyl-1,4-diazepan-1-yl)-6-methoxy-7-(3-(piperidin-1-yl)propoxy)quinazolin-4-amine] yielded an IC50 [1, 11] of less than 60 nM.
In the case of `COc1cc2c(NC3CCN(C(C)C)CC3)nc(N3CCCN(C4CCCCC4)CC3)nc2cc1OCCCN1CCCC1` [Compound 17d, 2-(4-Cyclohexyl-1,4-diazepan-1-yl)-N-(1-isopropylpiperidin-4-yl)-6-methoxy-7-(3-(pyrrolidin-1-yl)propoxy)quinazolin-4-amine], the IC50 [1, 10] is reported as no more than 100 nM and the IC50 [1, 12] is reported as 100 nM.
Work on `COc1cc2c(NC3CCN(C(C)C)CC3)nc(N3CCCN(CC4CCCCC4)CC3)nc2cc1OCCCN1CCCC1` [Compound 17e, 2-(4-(Cyclohexylmethyl)-1,4-diazepan-1-yl)-N-(1-isopropylpiperidin-4-yl)-6-methoxy-7-(3-(pyrrolidin-1-yl)propoxy)quinazolin-4-amine] yielded an IC50 [1, 10] of no more than 100 nM.
With `COc1cc2c(NC3CCN(C(C)C)CC3)nc(N3CCCN(Cc4ccccc4)CC3)nc2cc1OCCCN1CCCC1` [Compound 17g, 2-(4-Benzyl-1,4-diazepan-1-yl)-N-(1-isopropylpiperidin-4-yl)-6-methoxy-7-(3-(pyrrolidin-1-yl)propoxy)quinazolin-4-amine] the IC50 [1, 10] was no more than 100 nM.
`COc1cc2c(NC3CCN(C(C)C)CC3)nc(N3CCCCCC3)nc2cc1OCCCN1CCCC1` [Compound 17i, 2-(Azepan-1-yl)-N-(1-isopropylpiperidin-4-yl)-6-methoxy-7-(3-(pyrrolidin-1-yl)propoxy)quinazolin-4-amine] was tested, and the IC50 [1, 10] was no more than 100 nM and the IC50 [1, 12] was 100 nM.
In the case of `COc1cc2c(NC3CCN(C(C)C)CC3)nc(C3CCCCC3)nc2cc1OCCCN1CCCCC1` [Compound 24a, 2-Cyclohexyl-N-(1-isopropylpiperidin-4-yl)-6-methoxy-7-(3-(piperidin-1-yl)propoxy)quinazolin-4-amine], the “Fold lower potency in the G9a biochemical assay compared to compound 5” value [9] is reported as “about 10 fold”.
Work on `COc1cc2c(NC3CCN(C(C)C)CC3)nc(N3CCCN(C(C)C)CC3)nc2cc1OCCCN1CCCCC1` [Compound 25, 2-(4-Isopropyl-1,4-diazepan-1-yl)-N-(1-isopropylpiperidin-4-yl)-6-methoxy-7-(3-(piperidin-1-yl)propoxy)quinazolin-4-amine] yielded an IC50 [1, 11] of less than 60 nM.
`COc1cc2c(NC3CCN(C4CCCCC4)CC3)nc(N3CCCN(C)CC3)nc2cc1OCCCN1CCCCC1` [Compound 26, N-(1-cyclohexylpiperidin-4-yl)-6-methoxy-2-(4-methyl-1,4-diazepan-1-yl)-7-(3-(piperidin-1-yl)propoxy)quinazolin-4-amine] was tested, and the IC50 [1, 11] was less than 60 nM.
